Square brackets hold non-standard residues; d marks the D form. Peptide text beside a SMILES is read from it. * marks the point of attachment. Dolaproine = CO[C@@H]([C@@H]1CCCN1)[C@@H](C)C(=O)O; Dil = CC[C@H](C)[C@H](NC)[C@@H](CC(=O)O)OC; X5 = CC(C)[C@@H](C(=O)*)N(C)Cc1ccncc1
Test system: MDA-MB-231 (breast adenocarcinoma—ATCC HTB-26)
Experiment: ATPlite antiproliferative assay on MDA-MB-231 cells
Format: cell-based
Details: Homo sapiens, MDA-MB-231, 72 h, MDA-MB-231, 72 h drug treatment, values in text, read-out: EC50, antiproliferative activity on the MDA-MB-231 cell line
Protocol: A549 (Non Small Cell Lung Cancer—ATCC CCL-185) and MDA-MB-231 (breast adenocarcinoma—ATCC HTB-26) cells were cultured in Minimum Essential Medium Eagle (MEM) with 5% fetal calf serum (FCS) and Dulbecco's modified Eagle Medium (DMEM) with 10% FCS respectively. MCF7 (breast ductal carcinoma—ATCC HTB-22) and SN-12C (kidney carcinoma—ATCC) cells were maintained in RPMI1640 medium (without phenol red for MCF7 cells) containing 10% FCS. All the media were supplemented with fungizone (1.25 μg/mL) and penicillin-streptomycin (100 U/100 μg/mL). Cells were cultured under standard conditions in an incubator at 37° C., 5% CO2 and 95% atmospheric humidity.
Compounds according to the invention were investigated for their antiproliferative activity using an ATPlite proliferation assay (Perkin Elmer, Villebon sur Yvette, France) on a comprehensive panel of 4 cell lines. […] On day 4, cell viability was evaluated by dosing the ATP released by viable cells. The number of viable cells was analyzed in comparison with the number of solvent treated cells. The EC50 values were determined with curve fitting analysis (non linear regression model with a sigmoidal dose response, variable hill slope coefficient), performed with the algorithm provided by the GraphPad Software (GraphPad Software Inc., CA, USA).

`CC[C@H](C)[C@@H]([C@@H](CC(=O)N1CCC[C@H]1[C@H](OC)[C@@H](C)C(=O)N[C@@H](Cc1ccccc1)C(=O)OC)OC)N(C)C(=O)[C@@H](NC(=O)[C@H](C(C)C)N(C)Cc1ccncc1)C(C)C` [Example 3] (X5-V[Dil][Dolaproine]F-OMe) gave an EC50 of 0.41 nM.
